Reference: patent US8173675B2, “Substituted amino-thiourea compounds for combating animal pests” (BASF SE, priority 2007, dated 2012)

Legend:
[1] = test system: Vetch Aphid (Megoura viciae); experiment: Vetch aphid (Megoura viciae) test, sprayed bean leaf disks in microtiterplates; type: in vivo; settings: foliar, 144 h, bean leaf disks sprayed with 2.5 μl, 6 days, read-out: mortality compared to untreated controls
Experimental: The active compounds were formulated in 1:3 DMSO:water. Bean leaf disks were placed into microtiterplates filled with 0.8% agar-agar and 2.5 ppm OPUS™. The leaf disks were sprayed with 2.5 μl of the test solution and 5 to 8 adult aphids were placed into the microtiterplates which were then closed and kept at 22-24° C. and 35-45% under fluorescent light for 6 days. Mortality was assessed on the basis of vital, reproduced aphids. Tests were replicated 2 times.

[2] = test system: Green Peach Aphid (Myzus persicae); experiment: Green peach aphid (Myzus persicae) test, infested bell pepper leaves dipped in test solution; type: in vivo; settings: 120 h, determined after 5 days, read-out: mortality of green peach aphid in comparison with untreated controls
Experimental: (§1) The active compounds were formulated in a mixture of 50 vol.-% acetone:50 vol.-% water. A nonionic surfactant (Kinetic®) was included in the solution at a volume of 0.01% v/v.
(§2) In the following tests, the formulated solutions of the active compounds were diluted to an active ingredient concentration of 300 ppm, if not otherwise described, and the diluted solutions were applied in the below mentioned tests.
Bell pepper plants at the first true-leaf stage were infested prior to treatment by placing heavily infested leaves from the main aphid colony on top of the treatment plants. The aphids were allowed to transfer overnight to accomplish an infestation of 30-40 aphids per plant and the host leaves were removed. The infested leaves of the test plants were then dipped and agitated in the test solution for 3 seconds and allowed to dry in a fume hood. Test plants were maintained under fluorescent lighting in a 24-hr photoperiod at 25° C. and 20-40% relative humidity. Mortality on the treated plants, relative to mortality on untreated check plants, was determined after 5 days.

[3] = test system: Cowpea Aphid (aphis craccivora); experiment: Cowpea aphid (aphis craccivora) test, colonized potted cowpea plants sprayed; type: in vivo; settings: population reduction recorded after 24, 72, and 120 hours
Experimental: as §2
The active compounds were formulated in 50:50 acetone:water. Potted cowpea plants colonized with 100-150 aphids of various stages were sprayed after the pest population has been recorded. Population reduction was recorded after 24, 72, and 120 hours.

[4] = test system: Cotton Aphid (Aphis gossypii); experiment: Cotton aphid (Aphis gossypii) test, infested cotton cotyledons dipped in test solution; type: in vivo; settings: 120 h, determined after 5 days, read-out: mortality of cotton aphid (Aphis gossypii, mixed life stages) in comparison with untreated controls
Experimental: as §1, §2
Cotton plants at the cotyledon stage were infested prior to treatment by placing a heavily infested leaf from the main aphid colony on top of each cotyledon. The aphids were allowed to transfer overnight and the host leaf was removed. The infested cotyledons were then dipped and agitated in the test solution for 3 seconds and allowed to dry in a fume hood. Test plants were maintained under fluorescent lighting in a 24-hr photoperiod at 25° C. and 20-40% relative humidity. Aphid mortality on the treated plants, relative to mortality on untreated check plants, was determined after 5 days.

[5] = test system: Silverleaf Whitefly (bemisia argentifolii); experiment: Silverleaf whitefly (bemisia argentifolii) test, cotton cotyledons dipped, whitefly adults introduced; type: in vivo; settings: 72 h, whitefly adults on dipped cotton cotyledons, assessed 3 days after treatment, read-out: mortality compared to untreated controls
Experimental: as §2
The active compounds were formulated in 50:50 acetone:water and 100 ppm Kinetica™ surfactant.
Selected cotton plants were grown to the cotyledon state (one plant per pot). The cotyledons were dipped into the test solution to provide complete coverage of the foliage and placed in a well-vented area to dry. Each pot with treated seedling was placed in a plastic cup and 10 to 12 whitefly adults (approximately 3-5 day old) were introduced. The insects were colleted using an aspirator and an 0.6 cm, non-toxic TygonÒ tubing (R-3603) connected to a barrier pipette tip. The tip, containing the collected insects, was then gently inserted into the soil containing the treated plant, allowing insects to crawl out of the tip to reach the foliage for feeding. The cups were covered with a reusable screened lid (150 micron mesh polyester screen PeCap from Tetko Inc). Test plants were maintained in the holding room at about 25° C. and 20-40% relative humidity for 3 days avoiding direct exposure to the fluorescent light (24 hour photoperiod) to prevent trapping of heat inside the cup. Mortality was assessed 3 days after treatment of the plants.

Compound: CC1Cc2c(F)cccc2C1NC(=S)NCCO (stereo not drawn) [Compound example 8]
- mortality at 2500 ppm [1]: ≥ 75%
- mortality at 300 ppm [2]: ≥ 75%
- mortality at 300 ppm [3]: ≥ 75%
- mortality at 300 ppm [4]: ≥ 75%

Compound: OCCNC(=S)NC1COc2ccc(F)cc21 (stereo not drawn) [Compound example 1, 1-(5-Fluoro-2,3-dihydro-benzofuran-3-yl)-3-(2-hydroxy-ethyl)-thiourea]
- mortality at 2500 ppm [1]: ≥ 75%
- mortality at 300 ppm [2]: ≥ 75%
- mortality at 300 ppm [3]: ≥ 75%
- mortality at 300 ppm [4]: ≥ 75%

Compound: OCCNC(=S)NC1CSc2c(F)cccc21 (stereo not drawn) [Compound example 2, 1-(7-Fluoro-2,3-dihydro-benzo[b]thiophen-3-yl)-3-(2-hydroxy-ethyl)-thiourea]
- mortality at 2500 ppm [1]: ≥ 75%
- mortality at 300 ppm [2]: ≥ 75%
- mortality at 300 ppm [3]: ≥ 75%
- mortality at 300 ppm [4]: ≥ 75%

Compound: CC(=O)OCCNC(=S)NC1CSc2c(F)cccc21 (stereo not drawn) [Compound example 3, Acetic acid 2-[3-(7-fluoro-2,3-dihydro-benzo[b]thiophen-3-yl)thioureido]-ethyl ester]
- mortality at 2500 ppm [1]: ≥ 75%
- mortality at 300 ppm [2]: ≥ 75%
- mortality at 300 ppm [5]: ≥ 75%
- mortality at 300 ppm [3]: ≥ 75%

Compound: CC(=O)OCCNC(=S)NC1CC(C)c2c(F)cccc21 (stereo not drawn) [Compound example 7]
- mortality at 2500 ppm [1]: ≥ 75%
- mortality at 300 ppm [2]: ≥ 75%
- mortality at 300 ppm [5]: ≥ 75%
- mortality at 300 ppm [4]: ≥ 75%

Compound: CC(=O)OCCNC(=S)NC1c2cccc(F)c2CC1(C)C (stereo not drawn) [Compound example 5]
- mortality at 2500 ppm [1]: ≥ 75%
- mortality at 300 ppm [2]: ≥ 75%
- mortality at 300 ppm [5]: ≥ 75%
- mortality at 300 ppm [3]: ≥ 75%
- mortality at 300 ppm [4]: ≥ 75%

Compound: OCCNC(=S)NC1(c2ccccc2)CCc2ccccc21 (stereo not drawn) [Compound example 4]
- melting point: 67 to 69 °C

Compound: CC1(C)Cc2c(F)cccc2C1NC(=S)NCCO (stereo not drawn) [Compound example 6]
- mortality at 2500 ppm [1]: ≥ 75%
- mortality at 300 ppm [2]: ≥ 75%
- mortality at 300 ppm [3]: ≥ 75%
- mortality at 300 ppm [4]: ≥ 75%
